# In PubChem BioAssay AID2060491 (Molecular Pharmacology Branch, DTP, NCI, 2025):
# pIC50: −log10 of the molar value. Values joined by “and” are separate entries in the source; they are usually repeats but may differ in a detail not shown here. Equal values may be shown once.
# Tested on: 857933-349-R-J2-PDC complex spheroids, viability
# Assay: Anticancer human tumor 857933-349-R-J2-PDC patient-derived colon adenocarcinoma cell line growth inhibition [GQUAD]
# Conditions: for viability, T/C: stronger effect = lower value
# Excerpt: DNA G-quadruplex Stabilizer Agents in Combinations in Complex Spheroids
# A high-throughput screen of multi-cell type tumor spheroids was designed to identify active combinations of DNA G-quadruplex stabilizer agents and targeted small molecules. Complex spheroids include a stromal component modeled by human endothelial cells (HUVEC) and fibroblasts modeled by human mesenchymal stem cells (MSCs). The concentration ranges selected for each drug and investigational agent were based upon clinically achievable concentrations if the clinical Cmax of the agent was known.
# Compounds. The drugs and investigational agents: pidnarulex (CX-5461; NSC782164), APTO-253 (NSC789042), BRACO-19 (NSC847499), peposertib (NSC802822), ceralasertib (NSC780249), elimusertib (NSC800525), camonsertib (NSC841442), AZD-1390 (NSC803789), olaparib (NSC753686), talazoparib (NSC767125), ART-558 (NSC835418), sotorasib (NSC818433), MRTX-1133 (NSC836407), SN-38 (NSC673596), topotecan (NSC609699), etoposide (NSC141540), doxorubicin (NSC123127), gemcitabine (NSC613327), 5-fluorouracil (NSC19893), paclitaxel (NSC125973), vemurafenib (NSC761431), panobinostat (NSC761190), R-306465 (JNJ-16241199; NSC773264), adavosertib (NSC754352), TP-3654 (NSC805149), carboplatin (NSC241240), KSQ-4279 (NSC840948), and staurosporine (NSC755774) were obtained from the National Cancer Institute (NCI) Developmental Therapeutics Program Chemical Repository (34). The FDA-approved anticancer drug set is available from the NCI Developmental Therapeutics Program. […] The stock solutions were prepared in dimethyl sulfoxide (DMSO, Sigma-Aldrich, St. Louis, MO, cat. D2650) at 800-fold the tested concentration and stored at -70 degrees C prior to their use. All drugs and investigational agents were tested over a range starting from a high concentration at or near the clinical Cmax and decreasing in half-log increments. If the clinical Cmax for an agent had not been determined, the highest concentration tested was 10 microM.
# 2.3 Cell Culture. All cells were maintained in an incubator at 37 degrees C and 5% CO2 with 95% humidity. The PDC lines were cultured according to standard operating procedures established by the NCI PDMR. All PDCs were thawed and cultured in Matrigel-coated flasks prepared with a working solution of 1X Ham's F-12 nutrient mix, without supplementation (Invitrogen, cat. 11765054), 100 U/mL penicillin-streptomycin (Invitrogen, cat. 15140122), and 2.5% Matrigel (Corning Inc., cat. 354248) for the first three passages. The 857933-349-R-J2-PDC line was cultured in 6C/Colon 1B media, which includes advanced DMEM/F-12 (Thermo Fisher Scientific, cat. 12634028), 10 mM HEPES (Thermo Fisher Scientific, cat. 15630080), 1X GlutaMAX supplement (Thermo Fisher Scientific, cat. 35050061), 0.1 mg/mL primocin (InvivoGen, cat. ant-pm-2), 10% defined fetal bovine serum, heat inactivated (HyClone Laboratories Inc., cat. SH30070.03HI), 50% L-WRN conditioned media (ATCC, cat. CRL-3276), 1.25 mM N-Acetyl-L-cysteine (Sigma-Aldrich, cat. A9165), 10 mM nicotinamide (Sigma-Aldrich, cat. N0636), 1X B-27 supplement (Thermo Fisher Scientific, cat. 17504044), 1X N-2 supplement (Thermo Fisher Scientific, cat. 17502048), 10 microM Y-27632 dihydrochloride (Tocris Bioscience, cat. 1254), and 50 ng/mL human EGF recombinant protein (Thermo Fisher Scientific, cat. PHG0311). The 485176-168-R4-J1-PDC line was cultured in Panc media, which includes all 6C/Colon 1B media components plus 100 ng/mL human FGF-10 (Thermo Fisher Scientific, cat. 100-26), 500 nM SB-431542 (Selleckchem, cat. S1067), and gastrin (Tocris, cat. 3006).
# […]
# 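Further: spheroids exposed to compounds for one week before readout.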
# 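Wherever viability, T/C is given: percent viability relative to vehicle DMSO wells taken as 100%.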
compound,measurement,setting,value
Cc1[nH]c2ccccc2c1CCNCc1ccc(/C=C/C(=O)NO)cc1 + Cc1[nH]c2ccc(F)cc2c1-c1nc2c3cccnc3c3ncccc3c2[nH]1,pIC50,"curve of first compound, second compound 0.0316 µM",< 6.50
same,pIC50,"curve of first compound, second compound 0.1 µM",< 6.50
same,pIC50,"curve of first compound, second compound 0.316 µM",< 6.50
same,pIC50,"curve of first compound, second compound 1 µM",< 6.50
same,pIC50,"curve of first compound, second compound 3.16 µM",< 6.50
same,pIC50,"curve of first compound, second compound 10 µM",< 6.50
same,"viability, T/C","second compound 0.0316 µM, first compound 0.000999 µM",103%
same,"viability, T/C","second compound 0.0316 µM, first compound 0.00316 µM",95.8%
same,"viability, T/C","second compound 0.0316 µM, first compound 0.00999 µM",97.6%
same,"viability, T/C","second compound 0.0316 µM, first compound 0.0316 µM",104%
same,"viability, T/C","second compound 0.0316 µM, first compound 0.0999 µM",94%
same,"viability, T/C","second compound 0.0316 µM, first compound 0.316 µM",59.1%
same,"viability, T/C","second compound 0.1 µM, first compound 0.000999 µM",104%
same,"viability, T/C","second compound 0.1 µM, first compound 0.00316 µM",101%
same,"viability, T/C","second compound 0.1 µM, first compound 0.00999 µM",102%
same,"viability, T/C","second compound 0.1 µM, first compound 0.0316 µM",106%
same,"viability, T/C","second compound 0.1 µM, first compound 0.0999 µM",99.7%
same,"viability, T/C","second compound 0.1 µM, first compound 0.316 µM",60.7%
same,"viability, T/C","second compound 0.316 µM, first compound 0.000999 µM",101%
same,"viability, T/C","second compound 0.316 µM, first compound 0.00316 µM",104%
same,"viability, T/C","second compound 0.316 µM, first compound 0.00999 µM",96%
same,"viability, T/C","second compound 0.316 µM, first compound 0.0316 µM",92.8%
same,"viability, T/C","second compound 0.316 µM, first compound 0.0999 µM",107%
same,"viability, T/C","second compound 0.316 µM, first compound 0.316 µM",59.2%
same,"viability, T/C","second compound 1 µM, first compound 0.000999 µM",109%
same,"viability, T/C","second compound 1 µM, first compound 0.00316 µM",90%
same,"viability, T/C","second compound 1 µM, first compound 0.00999 µM",93.7%
same,"viability, T/C","second compound 1 µM, first compound 0.0316 µM",97.7%
same,"viability, T/C","second compound 1 µM, first compound 0.0999 µM",105%
same,"viability, T/C","second compound 1 µM, first compound 0.316 µM",61.4%
same,"viability, T/C","second compound 3.16 µM, first compound 0.000999 µM",90.8%
same,"viability, T/C","second compound 3.16 µM, first compound 0.00316 µM",79.8%
same,"viability, T/C","second compound 3.16 µM, first compound 0.00999 µM",86.2%
same,"viability, T/C","second compound 3.16 µM, first compound 0.0316 µM",88%
same,"viability, T/C","second compound 3.16 µM, first compound 0.0999 µM",104%
same,"viability, T/C","second compound 3.16 µM, first compound 0.316 µM",66.8%
same,"viability, T/C","second compound 10 µM, first compound 0.000999 µM",87%
same,"viability, T/C","second compound 10 µM, first compound 0.00316 µM",89.4%
same,"viability, T/C","second compound 10 µM, first compound 0.00999 µM",88.1%
same,"viability, T/C","second compound 10 µM, first compound 0.0316 µM",95.3%
same,"viability, T/C","second compound 10 µM, first compound 0.0999 µM",105%
same,"viability, T/C","second compound 10 µM, first compound 0.316 µM",61%
COc1ccc([C@@H](O)c2cc(-c3ncnc4cc(N5CCOCC5)ccc34)c(F)cc2Cl)nn1,"viability, T/C",compound 0.0316 µM,106% and 108% and 100%
same,"viability, T/C",compound 0.1 µM,90.5% and 103% and 89.7%
same,"viability, T/C",compound 0.316 µM,105% (2×) and 86%
same,"viability, T/C",compound 1 µM,82.6% and 98.4% and 79.4%
same,"viability, T/C",compound 3.16 µM,70.2% and 85.2% and 62%
same,"viability, T/C",compound 10 µM,56.8% and 59.8% and 48.4%
same,pIC50,curve of compound,< 5.00 and 5.05
